Laboratory results reported in PubChem BioAssay (NCI).
Where “and” joins values, the source holds several entries; their conditions need not be identical. Equal entries are not always repeated.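 48-hour exposure; five concentrations; linearly interpolated endpoints. GI50 marks 50% less growth. TGI denotes the concentration required for complete inhibition of growth.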

Legend:
Test in all cases: NCI tumour cell line growth inhibition, 48 h
SK-MEL-5 melanoma = tested on: SK-MEL-5 melanoma
HCT-116 colon = tested on: HCT-116 colon
NCI-H226 lung = tested on: NCI-H226 lung
OVCAR-8 ovarian = tested on: OVCAR-8 ovarian
SK-MEL-28 melanoma = tested on: SK-MEL-28 melanoma
MALME-3M melanoma = tested on: MALME-3M melanoma
SF-295 CNS = tested on: SF-295 CNS
SNB-75 CNS = tested on: SNB-75 CNS
SNB-19 CNS = tested on: SNB-19 CNS
UACC-62 melanoma = tested on: UACC-62 melanoma
DMS 273 small cell lung = tested on: DMS 273 small cell lung
CAKI-1 renal = tested on: CAKI-1 renal
HL-60(TB) leukemia = tested on: HL-60(TB) leukemia
OVCAR-3 ovarian = tested on: OVCAR-3 ovarian
P388/ADR leukemia = tested on: P388/ADR leukemia
NCI/ADR-RES ovarian = tested on: NCI/ADR-RES ovarian
LOX IMVI melanoma = tested on: LOX IMVI melanoma
KM20L2 colon = tested on: KM20L2 colon
A498 renal = tested on: A498 renal
COLO 205 colon = tested on: COLO 205 colon
SN12C renal = tested on: SN12C renal
OVCAR-5 ovarian = tested on: OVCAR-5 ovarian
NCI-H522 lung = tested on: NCI-H522 lung
HCT-15 colon = tested on: HCT-15 colon
HOP-62 NSCLC = tested on: HOP-62 NSCLC
IGROV1 ovarian = tested on: IGROV1 ovarian
UACC-257 melanoma = tested on: UACC-257 melanoma
KM12 colon = tested on: KM12 colon
A549 NSCLC = tested on: A549 NSCLC
HCC-2998 colon = tested on: HCC-2998 colon
NCI-H460 lung = tested on: NCI-H460 lung
EKVX NSCLC = tested on: EKVX NSCLC
M19-MEL melanoma = tested on: M19-MEL melanoma
U251 CNS = tested on: U251 CNS
RXF 393 renal = tested on: RXF 393 renal
MOLT-4 leukemia = tested on: MOLT-4 leukemia
HOP-92 NSCLC = tested on: HOP-92 NSCLC
RPMI-8226 leukemia = tested on: RPMI-8226 leukemia
HOP-18 NSCLC = tested on: HOP-18 NSCLC
SW-620 colon = tested on: SW-620 colon
OVCAR-4 ovarian = tested on: OVCAR-4 ovarian
NCI-H23 lung = tested on: NCI-H23 lung
HT29 colon = tested on: HT29 colon
SNB-78 CNS = tested on: SNB-78 CNS
MCF7 breast = tested on: MCF7 breast
SF-539 CNS = tested on: SF-539 CNS
CCRF-CEM leukemia = tested on: CCRF-CEM leukemia
SK-MEL-2 melanoma = tested on: SK-MEL-2 melanoma
P388 leukemia = tested on: P388 leukemia
SF-268 CNS = tested on: SF-268 CNS
SK-OV-3 ovarian = tested on: SK-OV-3 ovarian
XF 498 CNS = tested on: XF 498 CNS
SN12K1 renal = tested on: SN12K1 renal
DLD-1 colon = tested on: DLD-1 colon
K-562 leukemia = tested on: K-562 leukemia
UO-31 renal = tested on: UO-31 renal
T-47D breast = tested on: T-47D breast
MDA-MB-231 breast = tested on: MDA-MB-231 breast
DMS 114 small cell lung = tested on: DMS 114 small cell lung
SR leukemia = tested on: SR leukemia
DU-145 prostate = tested on: DU-145 prostate
LXFL 529 NSCLC = tested on: LXFL 529 NSCLC
TK-10 renal = tested on: TK-10 renal
M14 melanoma = tested on: M14 melanoma
PC-3 prostate = tested on: PC-3 prostate
MDA-MB-435 = tested on: MDA-MB-435
HS 578T breast = tested on: HS 578T breast
BT-549 breast = tested on: BT-549 breast
ACHN renal = tested on: ACHN renal
RXF-631 renal = tested on: RXF-631 renal
786-0 renal = tested on: 786-0 renal
MDA-N = tested on: MDA-N

COc1cc(/C=C(\C#N)C(N)=O)cc(Br)c1O
TGI (SK-MEL-5 melanoma): > 100 µM
TGI (HCT-116 colon): > 100 µM
TGI (NCI-H226 lung): > 100 µM
TGI (OVCAR-8 ovarian): > 100 µM
TGI (SK-MEL-28 melanoma): > 100 µM
TGI (MALME-3M melanoma): > 100 µM
TGI (SF-295 CNS): > 100 µM
TGI (SNB-75 CNS): 14.4 µM and > 100 µM
TGI (SNB-19 CNS): > 100 µM
GI50 (UACC-62 melanoma): 35.9 µM and > 100 µM
TGI (UACC-62 melanoma): > 100 µM
TGI (DMS 273 small cell lung): > 100 µM
TGI (CAKI-1 renal): > 100 µM
GI50 (HL-60(TB) leukemia): 83.8 µM and 59.8 µM
TGI (HL-60(TB) leukemia): > 100 µM
TGI (OVCAR-3 ovarian): > 100 µM
TGI (P388/ADR leukemia): > 100 µM
TGI (NCI/ADR-RES ovarian): > 100 µM
TGI (LOX IMVI melanoma): 59.2 µM and > 100 µM
TGI (KM20L2 colon): > 100 µM
GI50 (A498 renal): > 100 µM and 60.3 µM
TGI (A498 renal): > 100 µM
GI50 (COLO 205 colon): 73.8 µM and > 100 µM
TGI (COLO 205 colon): > 100 µM
GI50 (SN12C renal): > 100 µM and 34 µM
TGI (SN12C renal): > 100 µM
TGI (OVCAR-5 ovarian): > 100 µM
GI50 (NCI-H522 lung): 15.7 µM and 28.9 µM
TGI (NCI-H522 lung): 35.4 µM and 87.3 µM
TGI (HCT-15 colon): > 100 µM
TGI (HOP-62 NSCLC): > 100 µM
TGI (IGROV1 ovarian): > 100 µM
TGI (UACC-257 melanoma): > 100 µM
TGI (KM12 colon): > 100 µM
TGI (A549 NSCLC): > 100 µM
TGI (HCC-2998 colon): > 100 µM
TGI (NCI-H460 lung): > 100 µM
GI50 (EKVX NSCLC): 45.8 µM and > 100 µM
TGI (EKVX NSCLC): > 100 µM
TGI (M19-MEL melanoma): > 100 µM
TGI (U251 CNS): > 100 µM
TGI (RXF 393 renal): > 100 µM
TGI (MOLT-4 leukemia): > 100 µM
GI50 (HOP-92 NSCLC): 21.8 µM and > 100 µM
TGI (HOP-92 NSCLC): 93.3 µM and > 100 µM
TGI (RPMI-8226 leukemia): > 100 µM
TGI (HOP-18 NSCLC): > 100 µM
TGI (SW-620 colon): > 100 µM
TGI (OVCAR-4 ovarian): > 100 µM
GI50 (NCI-H23 lung): 43 µM and > 100 µM
TGI (NCI-H23 lung): > 100 µM
TGI (HT29 colon): > 100 µM
TGI (SNB-78 CNS): > 100 µM
TGI (MCF7 breast): > 100 µM
TGI (SF-539 CNS): > 100 µM
TGI (CCRF-CEM leukemia): > 100 µM
TGI (SK-MEL-2 melanoma): > 100 µM
GI50 (P388 leukemia): 85.3 µM and 44.5 µM
TGI (P388 leukemia): > 100 µM
TGI (SF-268 CNS): > 100 µM
TGI (SK-OV-3 ovarian): > 100 µM
TGI (XF 498 CNS): > 100 µM
TGI (SN12K1 renal): > 100 µM
TGI (DLD-1 colon): > 100 µM
GI50 (K-562 leukemia): 32.1 µM and 43.2 µM
TGI (K-562 leukemia): > 100 µM
TGI (UO-31 renal): > 100 µM

CC(=O)/C(C)=N/NC(=O)c1ccccc1O
TGI (T-47D breast): > 100 µM
TGI (SK-MEL-5 melanoma): > 100 µM
TGI (MDA-MB-231 breast): > 100 µM
GI50 (HCT-116 colon): > 100 µM
TGI (HCT-116 colon): > 100 µM
GI50 (NCI-H226 lung): > 100 µM
TGI (NCI-H226 lung): > 100 µM
GI50 (OVCAR-8 ovarian): > 100 µM
TGI (OVCAR-8 ovarian): > 100 µM
GI50 (SK-MEL-28 melanoma): > 100 µM
TGI (SK-MEL-28 melanoma): > 100 µM
GI50 (MALME-3M melanoma): > 100 µM
TGI (MALME-3M melanoma): > 100 µM
GI50 (SF-295 CNS): > 100 µM
TGI (SF-295 CNS): > 100 µM
GI50 (SNB-75 CNS): > 100 µM
TGI (SNB-75 CNS): > 100 µM
GI50 (SNB-19 CNS): > 100 µM
TGI (SNB-19 CNS): > 100 µM
GI50 (UACC-62 melanoma): > 10 µM
TGI (UACC-62 melanoma): > 100 µM
TGI (DMS 273 small cell lung): > 10 µM
TGI (DMS 114 small cell lung): > 10 µM
GI50 (CAKI-1 renal): > 100 µM
TGI (CAKI-1 renal): > 100 µM
GI50 (OVCAR-3 ovarian): > 10 µM
TGI (OVCAR-3 ovarian): > 100 µM
TGI (SR leukemia): > 100 µM
TGI (DU-145 prostate): > 100 µM
TGI (LXFL 529 NSCLC): > 10 µM
TGI (NCI/ADR-RES ovarian): > 100 µM
GI50 (TK-10 renal): > 100 µM
TGI (TK-10 renal): > 100 µM
GI50 (M14 melanoma): > 100 µM
TGI (M14 melanoma): > 100 µM
TGI (PC-3 prostate): > 100 µM
GI50 (LOX IMVI melanoma): > 100 µM
TGI (LOX IMVI melanoma): > 100 µM
TGI (KM20L2 colon): > 10 µM
GI50 (A498 renal): > 10 µM
TGI (A498 renal): > 100 µM
GI50 (COLO 205 colon): > 100 µM
TGI (COLO 205 colon): > 100 µM
GI50 (SN12C renal): > 100 µM
TGI (SN12C renal): > 100 µM
GI50 (OVCAR-5 ovarian): > 100 µM
TGI (OVCAR-5 ovarian): > 100 µM
TGI (NCI-H522 lung): > 100 µM
GI50 (HCT-15 colon): > 10 µM
TGI (HCT-15 colon): > 100 µM
TGI (MDA-MB-435): > 100 µM
TGI (HS 578T breast): > 100 µM
GI50 (HOP-62 NSCLC): > 100 µM
TGI (HOP-62 NSCLC): > 100 µM
GI50 (IGROV1 ovarian): > 10 µM
TGI (IGROV1 ovarian): > 100 µM
GI50 (UACC-257 melanoma): > 100 µM
TGI (UACC-257 melanoma): > 100 µM
GI50 (KM12 colon): > 100 µM
TGI (KM12 colon): > 100 µM
GI50 (A549 NSCLC): > 100 µM
TGI (A549 NSCLC): > 100 µM
GI50 (HCC-2998 colon): > 100 µM
TGI (HCC-2998 colon): > 100 µM
TGI (BT-549 breast): > 100 µM
GI50 (NCI-H460 lung): > 100 µM
TGI (NCI-H460 lung): > 100 µM
GI50 (EKVX NSCLC): > 100 µM
TGI (EKVX NSCLC): > 100 µM
TGI (M19-MEL melanoma): > 10 µM
GI50 (U251 CNS): > 100 µM
TGI (U251 CNS): > 100 µM
GI50 (RXF 393 renal): > 100 µM
TGI (RXF 393 renal): > 100 µM
TGI (MOLT-4 leukemia): > 100 µM
TGI (HOP-92 NSCLC): > 10 µM
GI50 (ACHN renal): > 100 µM
TGI (ACHN renal): > 100 µM
GI50 (RPMI-8226 leukemia): > 100 µM
TGI (RPMI-8226 leukemia): > 100 µM
TGI (HOP-18 NSCLC): > 10 µM
TGI (RXF-631 renal): > 10 µM
GI50 (SW-620 colon): > 100 µM
TGI (SW-620 colon): > 100 µM
GI50 (OVCAR-4 ovarian): > 100 µM
TGI (OVCAR-4 ovarian): > 100 µM
GI50 (NCI-H23 lung): > 100 µM
TGI (NCI-H23 lung): > 100 µM
GI50 (786-0 renal): > 100 µM
TGI (786-0 renal): > 100 µM
GI50 (HT29 colon): > 100 µM
TGI (HT29 colon): > 100 µM
TGI (SNB-78 CNS): > 10 µM
TGI (MCF7 breast): > 100 µM
TGI (SF-539 CNS): > 10 µM
TGI (CCRF-CEM leukemia): > 100 µM
GI50 (SK-MEL-2 melanoma): > 100 µM
TGI (SK-MEL-2 melanoma): > 100 µM
GI50 (SF-268 CNS): > 100 µM
TGI (SF-268 CNS): > 100 µM
GI50 (SK-OV-3 ovarian): > 100 µM
TGI (SK-OV-3 ovarian): > 100 µM
TGI (XF 498 CNS): > 10 µM
TGI (MDA-N): > 100 µM
TGI (DLD-1 colon): > 10 µM
TGI (K-562 leukemia): > 100 µM
TGI (UO-31 renal): > 10 µM
